Marks after values point to notes of the source that are not given here.
Columns and labels:
[1] = tested on: IRF4; experiment: Western blot of IRF4 in PEL cell lines; assay type: cell-based; settings: BC-3, BCBL-1, JSC-1
Source text: In addition, the effect of the immunomodulatory drugs on KSHV down-regulation of MHC-1 during lytic activation was investigated by FACS analysis after pretreating the cells with Immunomodulatory drugs prior to lytic activation with butyrate.
Cell Culture: The PEL lines JSC-1 (John Hopkins University, Baltimore, Md.), dually infected with Epstein-Barr virus (EBV) and HHV-8, and BC-3 (ATCC, Rockville, Md.) and BCBL-1(National Institute of Health AIDS Research and Reagent Program, Rockville, Md.), harboring KSHV only, and CA-46, an uninfected cancerous B-cell line, were grown in RPMI 1640 medium (Invitrogen, Carlsbad, Calif.) supplemented with 15% fetal-bovine serum (FBS) (Thermo Scientific, Rockford, Ill.) and Pen/Strep glutamine at 37° C. with 5% CO2.
Western Blotting: At the end of an incubation period, cells were lysed and nuclear/cytoplasmic extracts were prepared using the NE-PER nuclear extraction kit (Pierce). Samples were subjected to SDS-PAGE (4 to 12% NuPAGE Tris-Bis) (Invitrogen) and transferred to nitrocellulose. The membrane was blocked with 5% w/v nonfat dry milk in 1×TBST (10 mM Tris-Hcl, […], 150 mM NaCl, and 0.05% Tween 20) overnight at 4° C. […]

[2] = tested on: HIV-1; experiment: Plasma HIV viral load by ultrasensitive single copy assay; assay type: in vivo
Experimental: (§1) Aspirin at 81 mg daily was administered as thromboprophylaxis. Assessments were performed every 4 weeks for lymphocyte numbers, Kaposi sarcoma associated herpesvirus (KSHV/HHV8) viral load (VL) and HIV VL and at 8 weeks for T cell subsets and activation by immunophenotyping of peripheral blood mononuclear cells (PBMC). KSHV VL in PBMC and HIV VL in plasma were assayed by quantitative PCR; an ultrasensitive single copy assay was used for HIV VL. Changes from baseline were evaluated using the Wilcoxon signed rank test with P<0.005 considered significant given multiple comparisons. Differences in changes between the HIV infected and uninfected groups were evaluated using the Wilcoxon rank sum test. Median time of the patients on therapy 7 cycles (range 2-12).
Laboratory Assays: Lymphocyte subsets were assessed by fluorescent-activated cell sorting using the BlueOcean platform (Beckman Coulter, Carlsbad, Calif.). Plasma HIV-1 […] was evaluated using an ultrasensitive assay whose sensitivity was 1 viral copy per plasma volume. Briefly, a triplex PCR was used using a modification of a previously reported assay with three primers: one spanning the start codon of gag, one in the gag coding region, and one internal control. Samples were tested from 6 mL plasma aliquots, with 12 replicants per sample. KSHV VL in peripheral blood mononuclear cells (PBMC) was assessed by quantitative real-time PCR.
Changes in immunologic and virologic parameters were evaluated by a Wilcoxon signed rank test. Exact Wilcoxon rank sum tests were used to compare pharmacokinetic parameters at each time point and differences from baseline. All p-values are two-tailed and reported without adjustment for multiple comparisons. HRQL was analyzed using a using a mixed model repeated measures analysis for FAHI and the marginal homogeneity test for KS-specific questions

[3] = tested on: Kaposi sarcoma; experiment: Clinical study of pomalidomide in Kaposi sarcoma patients with and without HIV: KS responses by modified ACTG criteria; assay type: in vivo, human
Experimental: Enrollment: 22 patients (15 HIV positive and 7 HIV negative) median age 52 years (range 32-74) were studied. All patients with HIV were receiving antiretroviral therapy (ART) for median 48 months (7-227), HIV VL<50 copies/mL (all), and CD4 count 378 cells/μl (135-752). […] All were evaluable for response.
as §1
Kaposi sarcoma responses: KS responses were evaluated every cycle and categorized as complete (CR), partial (PR), stable disease (SD), or progressive disease (PD) using modified ACTG criteria. To be evaluable for response, patients completed at least two cycles of therapy. Evaluations included lesion counts, measurement of the sum product of the diameters of five indicator lesions, assessment of nodularity, and measurement of limb circumference if tumor-associated edema was present. PR was considered as at least 50% decrease in number of lesions and/or sum product of the diameters of marker lesions and/or nodularity of lesions, and no new lesions in previously uninvolved areas nor criteria for PD. CR was considered as clinical resolution of all lesions and tumor-associated phenomenon, with biopsy confirmation. Both CR and PR had to be sustained for 4 weeks. Best response was evaluated for each patient.
Complete and partial responses are objective tumor responses by modified AIDS Clinical Trial Group Criteria for KS. Complete response also requires pathological confirmation. Individual responses are shown in FIG. 1A (maximal change in number of nodular lesions) and FIG. 1B (maximal change in total number of lesions). No decrease in quality of life during therapy was reported by patient. Improved satisfaction with appearance was reported by patients. […] This includes objective responses in patients previously refractory to standard cytotoxic therapy and in patients who have previously received other immunomodulatory drugs (e.g., thalidomide, lenalidomide, or both).
HIV infected and uninfected cohorts were evaluated separately and combined. The unacceptable ORR for further development was defined as 10% and a desirable (targeted) ORR as 40%. Up to 10 HIV negative patients were to be enrolled, with the goal of […]; that would have 83.3% probability of occurring if the true ORR were 40% and 7.0% probability of occurring if the true ORR were 10%. Up to 15 HIV positive patients were to be enrolled, with the goal of […]; that would have 90.9% probability of occurring if the true ORR were 40% and 5.6% probability of occurring if the true ORR were 10%.

[4] = restricted to the 15 HIV positive subjects, paired data for 10-13 patients
[5] = Combined, 22 assessable, patients (%), 5 mg per day orally 21 of 28 days
[6] = HIV negative, 7 assessable, patients (%)
[7] = HIV positive, 15 assessable, patients (%)

Compound: Nc1cccc2c1C(=O)N(C1CCC(=O)NC1=O)C2=O (stereo not shown) [pomalidomide, 4-amino-2-(2,6-dioxopiperidin-3-yl)isoindoline-1,3-dione]
- IRF4 expression level ([1]; 1 μM and 10 μM, FIGS. 4A-4D): downregulated IRF4 in all three PEL lines
- IRF4 expression level ([1]; indicated concentrations for 72 hours, among three tested compounds, FIGS. 3A-3C): most effective in downregulating IRF4
- HIV VL ([2]; plasma, ultrasensitive single copy assay): no significant change
- Plasma HIV VL (copies/mL) Change to End Therapy (Med, range) [2, 4]: −0.5 copies/mL
- Plasma HIV VL (copies/mL) Change to Week 8 (Med, range) [2, 4]: +0.75 copies/mL
- Plasma HIV VL (copies/mL) Change to Week 4 (Med, range) ([2]; restricted to the 15 HIV positive subjects, paired data for 10-13 patients, baseline 1.5): +0.3 copies/mL
- response in HIV-uninfected subjects ([3]; 5 mg for 21 of 28 days): all HIV-uninfected subjects responded
- overall response rate ([3]; 5 mg for 21 of 28 days, symptomatic KS regardless of HIV status): 73%
- subjects with edema having evidence of improvement in tumor-associated edema ([3]; 10 of 17 subjects with edema): 59%
- Complete Response (CR) [3, 5]: 4 (18%)
- Partial Response (PR) [3, 5]: 12 (55%)
- Progressive Disease (PD) [3, 5]: 3 (14%)
- Overall Response (CR + PR) ([3]; Combined, 22 assessable, patients (%), 5 mg per day orally 21 days of 28 day cycles): 16 (73%)
- Time to Response ([3]; Combined, range (4-36)): 4 weeks
- Progressive Disease (PD) ([3]; HIV negative, 7 assessable, patients): 0
- Complete Response (CR) [3, 6]: 1 (14%)
- Partial Response (PR) [3, 6]: 6 (86%)
- Overall Response (CR + PR) ([3]; HIV negative, 7 assessable, patients (%), 5 mg per day orally 21 of 28 days): 7 (100%)
- Time to Response ([3]; HIV negative, range (4-36)): 4 weeks
- Complete Response (CR) [3, 7]: 3 (20%)
- Partial Response (PR) [3, 7]: 6 (40%)
- Overall Response (CR + PR) ([3]; HIV positive, 15 assessable, patients (%), 5 mg per day orally 21 of 28 days): 9 (60%)
- Progressive Disease (PD) ([3]; HIV positive, 15 assessable, patients (%), includes one subject non-adherent to ART and protocol therapy): 3 (20%)*
- Time to Response ([3]; HIV positive, range (4-32)): 8 weeks
- KS responses, character ([3]; including patients refractory to cytotoxic therapy or previously given other immunomodulatory drugs): responses were generally rapid, were linked to improved self reported outcomes, and occurred even in advanced and heavily pretreated KS
- subjects in whom limb circumference showed at least a 2 cm reduction with therapy ([3]; number of subjects, of 17 with edema): 8
- representative response of a left great toe lesion ([3]; one patient, after 4 weeks, FIG. 10B): complete flattening of the lesion
- representative response of a left great toe lesion ([3]; same patient, 24 weeks, FIG. 10C): complete resolution of the lesion and a complete pathological response

Source: patent US10001483B2, “Methods for the treatment of Kaposi's sarcoma or KSHV-induced lymphoma using immunomodulatory compounds, and uses of biomarkers” (Celgene Corporation, priority 2015, dated 2018)
